What was measured:
[1] = literature; cited from earlier work
[2] = Caco-2 monolayer cell membrane transport experiment; conditions: human; for efflux ratio: Caco-2; for Papp A→B: Caco-2, Papp A-B; for Papp B→A: Caco-2, Papp B-A
Protocol: (§1) The bi-directional transport of target compounds from apical side (AP) to basolateral side (BL) and from BL side to AP side is studied by using human colon adenocarcinoma cell line Caco-2 monolayer model. The transport parameters, apparent permeability coefficient (Papp) and efflux ratio are calculated by quantitative analysis with high performance liquid chromatography (HPLC).

[3] = tested on: human colon adenocarcinoma cell line Caco-2 monolayer model; experiment: as above
Protocol: as §1

[4] = target: T1, GST-labeled recombinant human FXR protein (Homo sapiens, UniProt Q96RI1); experiment: Agonistic activity on FXR receptor (GST-FXR / SRC-1 bead assay, protein level); assay type: biochemical; conditions: 0.4 nM FXR, 30 nM SRC-1, protein level
T1 construct: purchased Invitroren (so in the source)
T1 sequence (Q96RI1 262-486 limits assumed): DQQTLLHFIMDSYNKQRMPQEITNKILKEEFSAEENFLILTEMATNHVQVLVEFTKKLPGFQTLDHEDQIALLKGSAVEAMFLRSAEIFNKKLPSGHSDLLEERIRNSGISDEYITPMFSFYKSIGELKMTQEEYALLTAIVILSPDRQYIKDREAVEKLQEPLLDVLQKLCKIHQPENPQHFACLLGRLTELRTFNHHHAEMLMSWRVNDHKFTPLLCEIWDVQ
T1 sequence (Q15788 676-700 partner limits assumed): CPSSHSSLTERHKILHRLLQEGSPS
Protocol: Experimental procedures: FXR (GST-labeled recombinant human FXR protein, manufacturer: Invitroren, Item number: PV4835) and SRC-1 (steroid receptor co-activator-1) are thawed on ice. Three solutions of ABC are prepared by a buffer solution, solution A, 0.4 n M FXR and 30 nM SRC-1; solution B, 10 ug/ml Acceptor Beads; solution C, 10 ug/ml Donor Beads. Solution A is added to the plate at 15 uL per well. It is incubated at room temperature for 1 hour. Solution B is added to the plate at 7.5 uL per well. It is incubated at room temperature for 1 hour. Solution C is added to the plate at 7.5 uL per well. It is incubated at room temperature for 1 hour. It is read from the microplate reader Envision. The data are curve fitted by using Prism 5.0 to calculate the EC50.

[5] = target: T2, FXR (Homo sapiens, UniProt Q96RI1); experiment: Intracellular FXR-TR-FRET experiment (pBIND-FXR / pG5Luc dual luciferase); assay type: cell-based; conditions: cellular level, 18 hours with compound
T2 construct: expressed in transfected cells
T2 sequence (Q96RI1 1-486): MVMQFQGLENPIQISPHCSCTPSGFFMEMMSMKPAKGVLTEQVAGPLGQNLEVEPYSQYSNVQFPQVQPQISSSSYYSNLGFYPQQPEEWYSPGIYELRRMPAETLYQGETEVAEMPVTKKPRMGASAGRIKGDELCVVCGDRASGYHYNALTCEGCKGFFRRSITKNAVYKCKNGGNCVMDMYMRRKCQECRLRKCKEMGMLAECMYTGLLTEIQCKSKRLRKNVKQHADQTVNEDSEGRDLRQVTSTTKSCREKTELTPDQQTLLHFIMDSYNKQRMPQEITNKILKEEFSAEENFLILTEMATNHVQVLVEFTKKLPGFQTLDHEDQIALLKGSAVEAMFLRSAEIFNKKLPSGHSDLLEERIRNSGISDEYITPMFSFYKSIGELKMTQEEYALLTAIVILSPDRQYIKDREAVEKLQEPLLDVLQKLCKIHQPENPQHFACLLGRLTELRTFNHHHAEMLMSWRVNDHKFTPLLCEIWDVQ
Protocol: • 1. Cell culture: a, trypsinize dishes and seed cells are taken with appropriate density in 10 ml of complete […] at 37° C. b. Cells are incubated for 24 hours in 5% CO2 and humidified. • 2. Cell inoculation and transfection: FuGENE HD transfection reagent is used as a transfection reagent. • a. The transfection mixture is prepared according to the following procedure:
• b. The tube is tapped vigorously to mix the contents. The mixture is incubated at room temperature for 15 minutes. • c. Discs are trypsinized and cell density is determined. • d. The cytolymph is diluted to the desired volume at a density of 500,000 cells/ml (100 ul/well for 96-well plate). • e. The required volume of previously prepared transfection mixture is added to both cytolymph, and then 100 ul/well of cytolymph is dispensed onto the assay plate. • f. The assay plate is incubated under humidified conditions at 37° C., 5% CO2 for 24 hours. • 3. Compound preparation: • a. Compound stocks are prepared with a FXR working concentration of 10 mM and then diluted 3-fold in 100% DMSO. • b. 10 ul compound is added to 90 ul complete medium. • c. 5 ul compound solution is added to each well. • d. The plate is incubated at 37° C., 5% CO2 and humidified for 18 hours. • 4. Dual luciferase assay: the firefly and Renilla luciferase signals are analyzed by Dual Luciferase Reporter Assay System from Promega. Envision is used as a photometer. • 5. Result calculation: data values are normalized by dividing the firefly signal by the Renilla signal. “F/R” means “firefly/Renilla”. This normalization eliminates differences in different cell numbers and transfection efficiencies in each well. The % Activation value is calculated. The % Activation value is calculated by the following formula.
X is the “F/R” value for each concentration point. The minimum value is the average “F/R” value for the no compound control. The maximum value is the average “F/R” value of the reference compound control. • 6.

[6] = Caco-2 cell line (21 days), Table 5
[7] = Caco-2, Recovery rate A-B, Average
[8] = Caco-2, Recovery rate A-B, Sample-01
[9] = Caco-2, Recovery rate A-B, Sample-02

| efflux ratio [2] | EC50 [4] [nM] | EC50 [5] [nM] | Papp A→B [2] [×10⁻⁶ cm/s] | Papp A→B ([2]; Average) [×10⁻⁶ cm/s] | Papp A→B ([2]; Sample-01) [×10⁻⁶ cm/s] | Papp A→B ([2]; Sample-02) [×10⁻⁶ cm/s] | Papp B→A [2] [×10⁻⁶ cm/s] | recovery [2, 7] [%] | recovery [2, 8] [%] | recovery [2, 9] [%] | membrane permeation in Caco-2 (in words) ([3]; Caco-2) | Structure (SMILES) | further results |
| --- | --- | --- | --- | --- | --- | --- | --- | --- | --- | --- | --- | --- | --- |
| – | – | – | – | – | – | – | – | – | – | – | – | CC(C)c1onc(-c2c(Cl)cccc2Cl)c1COc1ccc(/C=C/c2cccc(C(=O)O)c2)c(Cl)c1 [GW4064] | oral availability [1]: 10%; t½ [1]: 3.5 h |
| > 263 | – | – | – | – | – | – | – | – | – | – | – | C[C@H]1O[C@@H](O[C@H]2[C@@H](O)C[C@H](O[C@H]3[C@@H](O)C[C@H](O[C@H]4CC[C@@]5(C)[C@H](CC[C@@H]6[C@@H]5C[C@@H](O)[C@]5(C)[C@@H](C7=CC(=O)OC7)CC[C@]65O)C4)O[C@@H]3C)O[C@@H]2C)C[C@H](O)[C@@H]1O [Digoxin, digoxin, reference compound] | Papp A→B ([2]; Average, Caco-2, A-B, Average (Table 3)): < 0.04 ×10⁻⁶ cm/s; Papp A→B [2, 6]: < 0.04 ×10⁻⁶ cm/s; Papp A→B ([2]; Sample-01, Caco-2, A-B, Sample-01): < 0.05 ×10⁻⁶ cm/s; Papp A→B ([2]; Sample-02, Caco-2, A-B, Sample-02): < 0.04 ×10⁻⁶ cm/s; Papp B→A ([2]; Average, Caco-2, B-A, Average (Table 3)): 11.6 ×10⁻⁶ cm/s; Papp B→A [2, 6]: 11.6 ×10⁻⁶ cm/s; Papp B→A ([2]; Sample-01, Caco-2, B-A, Sample-01): 11.7 ×10⁻⁶ cm/s; Papp B→A ([2]; Sample-02, Caco-2, B-A, Sample-02): 11.5 ×10⁻⁶ cm/s; recovery ([2]; Caco-2, Recovery rate A-B, Average, Caco-2, A-B): < 87%; recovery ([2]; Caco-2, Recovery rate A-B, Sample-01, Caco-2, A-B, Sample-01): < 85.2%; recovery ([2]; Caco-2, Recovery rate A-B, Sample-02, Caco-2, A-B, Sample-02): < 88.7%; recovery ([2]; Caco-2, Recovery rate B-A, Average, Caco-2, B-A): 94.6%; recovery ([2]; Caco-2, Recovery rate B-A, Sample-01, Caco-2, B-A, Sample-01): 93.7%; recovery ([2]; Caco-2, Recovery rate B-A, Sample-02, Caco-2, B-A, Sample-02): 95.4%; Papp A-B, Average ([3]; Caco-2, A-B, Average (Table 3)): <0.04 10−6 cm/s; Efflux rate = Papp B-A/Papp A-B ([3]; Caco-2 cell line (21 days)): > 262.93 |
| 16.9 | 240 | 1510 | 0.58 | 0.97 | 1.01 | 0.94 | 9.89 | 99 | 99.6 | 98.5 | poor effect | Cc1cc(C(=O)O)cc(C2CC(O)(c3cnc(OCc4c(-c5c(Cl)cccc5Cl)noc4C4CC4)cn3)C2)c1 (centres unmarked) [TM-08, 3-(3-(5-((5-cyclopropyl-3-(2,6-dichlorophenyl)isoxazol-4-yl)methoxy)pyrazine-2-yl)-3-hydroxycyclobutyl)-5-methyl benzoic acid] | – |
| > 76.8 | 1090 | 1490 | < 0.15 | < 0.15 | < 0.16 | < 0.14 | 11.6 | < 21.8 | < 27.2 | < 16.4 | poor permeation | O=C(O)c1cccc(C2CC(O)(c3ccc(OCc4c(-c5c(Cl)cccc5Cl)noc4C4CC4)cc3Cl)C2)c1 (centres unmarked) [Compound M3, reference compound] | Papp B→A ([2]; Average): 11.6 ×10⁻⁶ cm/s; Papp B→A ([2]; Sample-01): 13.3 ×10⁻⁶ cm/s; Papp B→A ([2]; Sample-02): 9.96 ×10⁻⁶ cm/s; recovery ([2]; Caco-2, Recovery rate B-A, Average): 36%; recovery ([2]; Caco-2, Recovery rate B-A, Sample-01): 36.3%; recovery ([2]; Caco-2, Recovery rate B-A, Sample-02): 35.6%; Papp A-B, Average ([3]; human, Caco-2): <0.15 10−6 cm/s |

Reference: patent publication US12486259B2, “FXR agonist having pyrazine structure, and preparation method and use” (JIANGSU TASLY DIYI PHARMACEUTICAL CO., LTD., priority 2020, dated 2025)
